Measured values reported in paper PMC10186366 (ACS Pharmacology & Translational Science, 2023).

What was measured:
[1] = system: KB human tumor cells (RFC/FRα/PCFT); test: Cell proliferation assay, KB tumor cells (with or without 200 nM folic acid); assay type: cell-based; conditions: 96 h, 2 nM leucovorin, no folic acid, mean (standard error)
Protocol: The CHO sublines were treated for 96 h with a range of drug concentrations up to 1000 nM; cell viabilities were measured with a fluorescence assay.[26] […] As a control, we used transporter-null R2 cells.[42] To extend studies to human tumor cells, we also performed experiments in RFC-, PCFT-, and FRα-expressing KB tumor cells.[44] To confirm the contribution of FR-mediated uptake to antitumor activity, for KB cells, we added 200 nM folic acid, which inhibits FR uptake by direct competition without effects on either RFC or PCFT.[25],[26],[28]−[30],[43]
The CHO sublines were cultured in α-minimal essential medium (α-MEM) supplemented with 100 U/mL penicillin/100 μg/mL streptomycin, 2 mM L-glutamine, and 10% bovine calf serum (Sigma-Aldrich). For the PC43-10, R2/PCFT4, RT16, and D4 sublines, 1.5 mg/mL G418 was also added. Seventy-two hours prior to in vitro proliferation assays (below), RT16 and D4 CHO cells were grown in folate-free RPMI with dialyzed fetal bovine serum (DFBS) (Invitrogen) supplemented with 100 U/mL penicillin/[…] streptomycin and 2 mM L-glutamine. FRα-expressing KB nasopharyngeal carcinoma cells were acquired from the American Type Culture Collection (Manassas, VA); cells were grown in complete folate-free RPMI 1640 supplemented with 10% fetal bovine serum, 100 U/mL penicillin/100 μg/mL streptomycin, and 2 mM L-glutamine. Cell lines were authenticated by STR analysis (Genetica DNA Laboratories, Burlington, NC) and tested for Mycoplasma by PCR (Venor GeM Mycoplasma Detection Kit, Sigma). Frozen stocks were generated from authenticated Mycoplasma-free cultures.
Cell proliferation assays used CHO and KB cells cultured in folate-free-RPMI 1640 media with 10% DFBS, 2 mM L-glutamine, and 100 U/mL penicillin/100 μg/mL streptomycin supplemented with 2 nM (KB, RT16, D4) or 25 nM (R2, PC43-10, R2/PCFT4) leucovorin.[25],[26],[30] Parallel incubations with 200 nM folic acid were performed in viability assays to confirm FR-mediated drug uptake. Cells were plated in 96-well dishes at 2500–5000 cells/well in 200 μL media and treated with a range of C1 inhibitors spanning 0 to 1 μM. Cells were treated at 37 ° C with 5% CO2, and numbers were assayed after 96 h using CellTiter-blue (Promega, Madison, WI) and a fluorescence plate reader.[25],[26]

human ATIC (AICARFTase) = target: T1, human ATIC (AICARFTase) (Homo sapiens, UniProt P31939); test: In vitro AICARFTase (ATIC) enzyme assay (THF formation from 10-CHOTHF); assay type: biochemical; conditions: monoglutamyl antifolates; mean (standard error), at least three replicate assays; tested up to 200 μM
T1 construct: full-length human ATIC; made in house; host or cells: E. coli Rosetta (DE3)pLysS
Protocol: We directly tested inhibition potencies by in vitro assays using purified GARFTase and ATIC (AICARFTase) to calculate inhibition dissociation constants (Ki’s) (Table 2).[45]
N-terminal hexahistidine-tagged GARFTase (formyltransferase domain; residues 808–1010) and full-length human ATIC were expressed in Rosetta (DE3)pLysS cells.[45],[48] Cultures (1 L) were grown at 37 °C in LB media with 100 μg/mL ampicillin and 34 μg/mL chloramphenicol until OD600 reached 0.6. Isopropyl β-D-1-thiogalactopyranoside (500 μM) was added, and the cells were incubated at 20 °C for 16–18 h. The cultures were pelleted and resuspended in 40 mL of 25 mM Tris–HCl, pH 7.5, 300 mM NaCl, 5 mM β-mercaptoethanol (β-ME), 10 mM CaCl2, 10 mM MgCl2, 40 mg lysozyme, and 8 U DNAse I (Sigma). The cells were lysed by emulsification.
His-ATIC was purified from the lysate by immobilized metal affinity chromatography with a 4 mL Ni-NTA column (Gold Biotechnology).[45] The column was washed with 5 CV of 25 mM Tris–HCl, pH 7.5, 300 mM NaCl, 10 mM imidazole, and 5 mM β-ME (wash buffer) followed by 5 CV of the wash buffer containing 25 mM imidazole. The protein was eluted with 5 CV of the elution buffer containing components of the wash buffer with 300 mM imidazole. Further purification was by ÄKTA FPLC (GE Healthcare) with a Superdex 200 16/60 (GE Healthcare) column equilibrated with 20 mM Tris–HCl, pH 7.5, 150 mM NaCl, 50 mM KCl, 5 mM EDTA, and 5 mM dithiothreitol (DTT). His-ATIC was stored at 150 μM at 4 °C in this buffer (up to 6 months) or at 100 μM with 20% glycerol at −80 °C for longer-term storage.
GARFTase catalytic activity was measured by monitoring THF formation from 10-CHOTHF.[32],[45],[48] GARFTase assays included 40 μM 10-CHO-THF, 50 nM His-GARFTase, 15 μM α,β-GAR, and a range of inhibitor concentrations in 25 mM Tris–HCl, pH 8.0, 300 mM NaCl, and 5 mM β-ME at 37 °C.[45] AICARFTase catalytic activity was measured by monitoring THF formation from 10-CHOTHF.[54] Reactions included 50 μM 10-CHOTHF, 100 nM His-ATIC, 50 μM ZMP, and inhibitors in 32.6 mM Tris–HCl, pH 7.5, 25 mM KCl, and 5 mM β-ME at 25 ° C.[45] Kinetic measurements were recorded in triplicate in a UV-transparent 96-well plate (Costar 3635) at 298 nm using a BioTek Synergy Neo2 Plate Reader. Initial slopes were graphed against inhibitor concentrations and fit to a three-parameter nonlinear regression to calculate IC50 values for each compound (GraphPad Prism 8.0). […] SHMT2 activity was assayed by monitoring NADH production with a coupled assay including 500 nM His-SHMT2 and 10 μM His-MTHFD2 ([…] molar ratio His-SHMT2/His-MTHFD2). NADH production by His-MTHFD2 was monitored by fluorescence at 470 nm with excitation at 360 nm (Synergy Neo2 Biotek plate reader). Inhibition constants (Ki’s) were calculated from the IC50 values using the equation Ki = IC50/([S]/KM + 1) and the Km and substrate concentration for THF. The THF concentration in the reaction was […]. The calculated Km value for THF with His-SHMT2 was 62.8 μM.

T1 sequence (P31939 whole entry): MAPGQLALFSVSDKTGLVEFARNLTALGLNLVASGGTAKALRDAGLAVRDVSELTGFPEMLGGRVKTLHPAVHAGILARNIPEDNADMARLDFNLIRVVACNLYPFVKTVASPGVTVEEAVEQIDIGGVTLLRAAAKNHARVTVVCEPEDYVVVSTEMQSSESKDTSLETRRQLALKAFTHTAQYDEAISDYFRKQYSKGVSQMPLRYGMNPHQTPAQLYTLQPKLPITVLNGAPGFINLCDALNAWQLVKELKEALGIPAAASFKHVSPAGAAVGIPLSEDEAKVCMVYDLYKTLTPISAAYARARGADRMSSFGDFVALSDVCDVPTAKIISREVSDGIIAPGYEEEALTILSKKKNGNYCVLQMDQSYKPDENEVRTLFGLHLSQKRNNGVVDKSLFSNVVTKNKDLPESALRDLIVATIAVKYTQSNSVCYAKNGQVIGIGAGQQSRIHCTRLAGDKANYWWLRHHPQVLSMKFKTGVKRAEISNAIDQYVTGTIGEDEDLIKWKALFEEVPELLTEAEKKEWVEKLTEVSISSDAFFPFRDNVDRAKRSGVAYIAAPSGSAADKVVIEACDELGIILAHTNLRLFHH

Ki (human ATIC (AICARFTase)) [µM]	SMILES	IC50 [1] [µM]
18.4	Nc1nc2sc(CCCCc3cccc(C(=O)N[C@@H](CCC(=O)O)C(=O)O)n3)cc2c(=O)[nH]1 [Compound 3, (6-(4-(2-Amino-4-oxo-3,4-dihydrothieno[2,3-d]pyrimidin-6-yl)butyl)picolinoyl)-L-glutamic Acid]	–
> 200	Nc1nc2sc(CCCc3ccc(C(=O)N[C@@H](CCC(=O)O)C(=O)O)cc3)cc2c(=O)[nH]1 [Compound 1]	–
19.4	Nc1nc2sc(CCCCc3ccc(C(=O)N[C@@H](CCC(=O)O)C(=O)O)c(F)c3)cc2c(=O)[nH]1 [Compound 7, (4-(4-(2-Amino-4-oxo-3,4-dihydrothieno[2,3-d]pyrimidin-6-yl)butyl)-2-fluorobenzoyl)-L-glutamic Acid]	0.00527
14.5	Nc1nc2sc(CCCc3csc(C(=O)N[C@@H](CCC(=O)O)C(=O)O)c3F)cc2c(=O)[nH]1 [Compound 8, (4-(3-(2-Amino-4-oxo-3,4-dihydrothieno[2,3-d]pyrimidin-6-yl)propyl)-3-fluorothiophene-2-carbonyl)-L-glutamic Acid]	0.00684
> 200	Nc1nc2sc(CCCCc3cnc(C(=O)N[C@@H](CCC(=O)O)C(=O)O)c(F)c3)cc2c(=O)[nH]1 [Compound 5, (5-(4-(2-Amino-4-oxo-3,4-dihydrothieno[2,3-d]pyrimidin-6-yl)butyl)-3-fluoropicolinoyl)-L-glutamic Acid]	0.00505

SMILES	Ki (human ATIC (AICARFTase)) [µM]	IC50 [1] [µM]
Nc1nc2sc(CCCCc3ccc(C(=O)N[C@@H](CCC(=O)O)C(=O)O)nc3)cc2c(=O)[nH]1 [Compound 4, (5-(4-(2-Amino-4-oxo-3,4-dihydrothieno[2,3-d]pyrimidin-6-yl)butyl)picolinoyl)-L-glutamic Acid]	12.1	0.00211
Nc1nc2sc(CCCc3ccc(C(=O)N[C@@H](CCC(=O)O)C(=O)O)c(F)c3)cc2c(=O)[nH]1 [Compound 6, (4-(3-(2-Amino-4-oxo-3,4-dihydrothieno[2,3-d]pyrimidin-6-yl)propyl)-2-fluorobenzoyl)-L-glutamic Acid]	7.3	0.00719
Nc1nc2sc(CCCCc3csc(C(=O)N[C@@H](CCC(=O)O)C(=O)O)c3F)cc2c(=O)[nH]1 [Compound 9, (4-(4-(2-Amino-4-oxo-3,4-dihydrothieno[2,3-d]pyrimidin-6-yl)butyl)-3-fluorothiophene-2-carbonyl)-L-glutamic Acid]	23.7	0.00263
